Assay results: the NIST ThermoML archive (doi:10.1021/je0302304)

Experiment: refractive index (Na D-line) (dimensionless); xn = mol fraction of the nth substance listed
Conditions: 101.32 kPa, Liquid, Standard Abbe refractometry

COCCOCCOCCOC [2,5,8,11-tetraoxadodecane] + CCO
refractive index
Conditions | 288.15 K | 298.15 K | 308.15 K | 318.15 K
x1 = 0.0045 | 1.3641 | 1.36 | 1.3559 | 1.3517
x1 = 0.0085 | 1.3648 | 1.3608 | 1.3567 | 1.3525
x1 = 0.0125 | 1.3656 | 1.3616 | 1.3575 | 1.3533
x1 = 0.0165 | 1.3664 | 1.3624 | 1.3583 | 1.3541
x1 = 0.0205 | 1.3672 | 1.3632 | 1.359 | 1.3548
x1 = 0.0305 | 1.3691 | 1.365 | 1.3609 | 1.3567
x1 = 0.05 | 1.3724 | 1.3684 | 1.3644 | 1.3602
x1 = 0.1 | 1.3799 | 1.376 | 1.372 | 1.3679
x1 = 0.15 | 1.3862 | 1.3823 | 1.3782 | 1.3741
x1 = 0.2 | 1.3915 | 1.3875 | 1.3834 | 1.3794
x1 = 0.25 | 1.396 | 1.3919 | 1.3879 | 1.3839
x1 = 0.3 | 1.3998 | 1.3958 | 1.3917 | 1.3877
x1 = 0.35 | 1.4032 | 1.3991 | 1.395 | 1.391
x1 = 0.4 | 1.4061 | 1.402 | 1.3979 | 1.3939
x1 = 0.4499 | 1.4087 | 1.4046 | 1.4005 | 1.3965
x1 = 0.5 | 1.411 | 1.4069 | 1.4028 | 1.3988
x1 = 0.55 | 1.4131 | 1.409 | 1.4049 | 1.4008
x1 = 0.6 | 1.4149 | 1.4108 | 1.4067 | 1.4026
x1 = 0.65 | 1.4166 | 1.4125 | 1.4084 | 1.4043
x1 = 0.7 | 1.4181 | 1.414 | 1.4099 | 1.4058
x1 = 0.75 | 1.4195 | 1.4154 | 1.4113 | 1.4072
x1 = 0.7999 | 1.4208 | 1.4167 | 1.4126 | 1.4084
x1 = 0.8499 | 1.422 | 1.4179 | 1.4137 | 1.4096
x1 = 0.8998 | 1.4231 | 1.4189 | 1.4148 | 1.4106
x1 = 0.9498 | 1.4241 | 1.4199 | 1.4158 | 1.4116
x1 = 1 | 1.425 | 1.4209 | 1.4167 | 1.4125

COCCOCCOC [2,5,8-trioxanonane] + CCO
refractive index
Conditions | 288.15 K | 298.15 K | 308.15 K | 318.15 K
x1 = 0.0045 | 1.3636 | 1.3596 | 1.3555 | 1.3514
x1 = 0.0085 | 1.3641 | 1.3601 | 1.356 | 1.3518
x1 = 0.0125 | 1.3645 | 1.3605 | 1.3565 | 1.3523
x1 = 0.0165 | 1.365 | 1.361 | 1.3569 | 1.3528
x1 = 0.0205 | 1.3655 | 1.3615 | 1.3574 | 1.3532
x1 = 0.0305 | 1.3666 | 1.3626 | 1.3585 | 1.3543
x1 = 0.05 | 1.3687 | 1.3647 | 1.3606 | 1.3564
x1 = 0.1 | 1.3737 | 1.3696 | 1.3654 | 1.3612
x1 = 0.15 | 1.378 | 1.3739 | 1.3697 | 1.3655
x1 = 0.2 | 1.3817 | 1.3776 | 1.3734 | 1.3692
x1 = 0.25 | 1.3851 | 1.381 | 1.3767 | 1.3725
x1 = 0.3 | 1.3881 | 1.3839 | 1.3797 | 1.3754
x1 = 0.35 | 1.3907 | 1.3866 | 1.3823 | 1.378
x1 = 0.4 | 1.3931 | 1.3889 | 1.3846 | 1.3803
x1 = 0.45 | 1.3953 | 1.3911 | 1.3867 | 1.3824
x1 = 0.4999 | 1.3973 | 1.3931 | 1.3887 | 1.3843
x1 = 0.55 | 1.399 | 1.3948 | 1.3904 | 1.3861
x1 = 0.5999 | 1.4007 | 1.3965 | 1.392 | 1.3877
x1 = 0.65 | 1.4022 | 1.398 | 1.3935 | 1.3892
x1 = 0.6999 | 1.4036 | 1.3993 | 1.3949 | 1.3905
x1 = 0.7499 | 1.4049 | 1.4006 | 1.3961 | 1.3917
x1 = 0.7999 | 1.406 | 1.4018 | 1.3973 | 1.3929
x1 = 0.8499 | 1.4072 | 1.4029 | 1.3984 | 1.394
x1 = 0.8998 | 1.4082 | 1.4039 | 1.3994 | 1.395
x1 = 0.9498 | 1.4092 | 1.4049 | 1.4003 | 1.3959
x1 = 1 | 1.4101 | 1.4058 | 1.4012 | 1.3968

COCCOC [1,2-dimethoxyethane] + CCO
refractive index
Conditions | 288.15 K | 298.15 K | 308.15 K | 318.15 K
x1 = 0.0045 | 1.3633 | 1.3592 | 1.3552 | 1.351
x1 = 0.0086 | 1.3634 | 1.3593 | 1.3553 | 1.3511
x1 = 0.0125 | 1.3635 | 1.3594 | 1.3554 | 1.3512
x1 = 0.0165 | 1.3636 | 1.3596 | 1.3555 | 1.3513
x1 = 0.0205 | 1.3638 | 1.3597 | 1.3557 | 1.3515
x1 = 0.0305 | 1.3642 | 1.3601 | 1.356 | 1.3518
x1 = 0.05 | 1.3649 | 1.3608 | 1.3566 | 1.3524
x1 = 0.1 | 1.3666 | 1.3624 | 1.3582 | 1.3539
x1 = 0.15 | 1.3681 | 1.3639 | 1.3596 | 1.3552
x1 = 0.2 | 1.3695 | 1.3652 | 1.3609 | 1.3565
x1 = 0.25 | 1.3709 | 1.3664 | 1.3621 | 1.3576
x1 = 0.3 | 1.3721 | 1.3676 | 1.3631 | 1.3586
x1 = 0.35 | 1.3732 | 1.3686 | 1.3641 | 1.3596
x1 = 0.4 | 1.3742 | 1.3696 | 1.3651 | 1.3605
x1 = 0.45 | 1.3751 | 1.3705 | 1.3659 | 1.3613
x1 = 0.5 | 1.376 | 1.3714 | 1.3667 | 1.362
x1 = 0.55 | 1.3768 | 1.3722 | 1.3675 | 1.3628
x1 = 0.6 | 1.3776 | 1.3729 | 1.3682 | 1.3634
x1 = 0.6499 | 1.3783 | 1.3736 | 1.3688 | 1.364
x1 = 0.7 | 1.379 | 1.3742 | 1.3694 | 1.3646
x1 = 0.7499 | 1.3796 | 1.3748 | 1.37 | 1.3652
x1 = 0.7999 | 1.3802 | 1.3754 | 1.3705 | 1.3657
x1 = 0.85 | 1.3808 | 1.3759 | 1.371 | 1.3661
x1 = 0.9 | 1.3813 | 1.3764 | 1.3715 | 1.3666
x1 = 0.9499 | 1.3818 | 1.3768 | 1.3719 | 1.3669
x1 = 1 | 1.3824 | 1.3772 | 1.3722 | 1.3672
